Experimental data taken from US9694016B2 (Novartis AG, priority 2013, dated 2017).

The compounds below were run against b-Raf (V600E) (Homo sapiens (Human), UniProt P15056, V600E). Details: read-out: b-Raf IC-50; AlphaScreen, 60 min pre-incubation, 3 hours reaction.
Chain of b-Raf (V600E) (P15056 whole entry V600E): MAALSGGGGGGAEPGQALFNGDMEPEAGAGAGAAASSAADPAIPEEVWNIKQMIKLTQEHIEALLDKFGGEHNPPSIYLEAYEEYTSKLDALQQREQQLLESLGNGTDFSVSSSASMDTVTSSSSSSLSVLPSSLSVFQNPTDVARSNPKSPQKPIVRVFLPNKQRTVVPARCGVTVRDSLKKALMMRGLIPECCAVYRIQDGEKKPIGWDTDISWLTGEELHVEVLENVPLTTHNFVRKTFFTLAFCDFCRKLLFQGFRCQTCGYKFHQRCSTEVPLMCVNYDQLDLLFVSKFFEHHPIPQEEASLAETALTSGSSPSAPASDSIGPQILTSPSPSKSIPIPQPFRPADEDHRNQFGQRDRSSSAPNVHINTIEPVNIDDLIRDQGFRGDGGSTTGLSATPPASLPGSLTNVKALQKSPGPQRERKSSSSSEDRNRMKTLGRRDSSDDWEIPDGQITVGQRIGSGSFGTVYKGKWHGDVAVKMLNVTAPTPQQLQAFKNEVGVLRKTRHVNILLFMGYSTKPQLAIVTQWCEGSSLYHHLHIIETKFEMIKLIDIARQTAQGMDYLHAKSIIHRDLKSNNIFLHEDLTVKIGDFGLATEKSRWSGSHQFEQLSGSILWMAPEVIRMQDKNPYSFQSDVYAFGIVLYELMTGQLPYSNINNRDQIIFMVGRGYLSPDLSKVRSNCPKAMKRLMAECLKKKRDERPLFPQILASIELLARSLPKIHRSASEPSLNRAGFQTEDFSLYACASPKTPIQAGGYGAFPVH

IC50 [nM] | SMILES
1.6 | CCNc1nc(-c2cc(NC(=O)c3cccc(C(F)F)c3)cnc2C)cc(N2CCOCC2)n1 [Example 722, 3-(difluoromethyl)-N-(5-(2-(ethylamino)-6-morpholinopyrimidin-4-yl)-6-methylpyridin-3-yl)benzamide]
1.4 | Cc1ncc(NC(=O)c2cc(C(F)(F)F)ccn2)cc1-c1cc(N2CCOCC2)n2nccc2n1 [Example 810, N-(6-methyl-5-(7-morpholinopyrazolo[1,5-a]pyrimidin-5-yl)pyridin-3-yl)-4-(trifluoromethyl)picolinamide]
2.7 | CCn1cc(C(=O)Nc2ccc(C)c(-c3cc(N4CCOCC4)c(=O)n(C)n3)c2)cc(C(F)(F)F)c1=O [Example 641, 1-ethyl-N-(4-methyl-3-(1-methyl-5-morpholino-6-oxo-1,6-dihydropyridazin-3-yl)phenyl)-6-oxo-5-(trifluoromethyl)-1,6-dihydropyridine-3-carboxamide]
5.6 | CCNc1nc(-c2cc(NC(=O)c3ccnc(C(C)(C)C#N)c3)ccc2C)cc(N2CCOC[C@H]2C)n1 [Example 711, (R)-2-(2-cyanopropan-2-yl)-N-(3-(2-(ethylamino)-6-(3-methylmorpholino)pyrimidin-4-yl)-4-methylphenyl)isonicotinamide]
21.4 | Cc1ncc(NC(=O)c2cc(CN(C)C)cc(C(F)(F)F)c2)cc1-c1ccc(C#N)c(N2CCOCC2)c1 [Example 685, N-(5-(4-cyano-3-morpholinophenyl)-6-methylpyridin-3-yl)-3-((dimethylamino)methyl)-5-(trifluoromethyl)benzamide]
38.6 | Cc1ncc(NC(=O)c2ccnc(C(C)(C)C#N)c2)cc1-c1cc(N2CCOCC2)nc(NC[C@@H](C)O)n1 [Example 742, (R)-2-(2-cyanopropan-2-yl)-N-(5-(2-((2-hydroxypropyl)amino)-6-morpholinopyrimidin-4-yl)-6-methylpyridin-3-yl)isonicotinamide]
2.9 | Cc1ncc(NC(=O)c2ccnc(C(C)(C)F)c2)cc1-c1cc(N2CCOCC2)c(OC2CCOCC2)nn1 [Example 630, 2-(2-fluoropropan-2-yl)-N-(6-methyl-5-(5-morpholino-6-((tetrahydro-2H-pyran-4-yl)oxy)pyridazin-3-yl)pyridin-3-yl)isonicotinamide]
1.9 | Cc1ccc(NC(=O)c2ccnc(N3CCC3)c2)cc1-c1cc(N2CCOCC2)c(=O)n(C)c1 [Example 454, 2-(azetidin-1-yl)-N-(4-methyl-3-(1-methyl-5-morpholino-6-oxo-1,6-dihydropyridin-3-yl)phenyl)isonicotinamide]
2.5 | CCn1c(N2CCOCC2)cc(-c2cc(NC(=O)c3ccnc(C(C)C)c3)ccc2C)cc1=O [Example 522, N-(3-(1-ethyl-6-morpholino-2-oxo-1,2-dihydropyridin-4-yl)-4-methylphenyl)-2-isopropylisonicotinamide]
5.6 | Cc1ncc(NC(=O)c2ccnc(C(F)(F)F)c2)cc1-c1cc(N2CCOCC2)n(C)c(=O)c1 [Example 500]

SMILES | IC50 [nM]
Cc1ccc(NC(=O)c2ccnc(C(C)(C)F)c2)cc1-c1cc(N2C3CCC2COC3)c(=O)n(C)n1 [Example 668, N-(3-(5-(3-oxa-8-azabicyclo[3.2.1]octan-8-yl)-1-methyl-6-oxo-1,6-dihydropyridazin-3-yl)-4-methylphenyl)-2-(2-fluoropropan-2-yl)isonicotinamide] | 4.1

Same assay, conditions: read-out: b-Raf IC-50; AlphaScreen, 60 min pre-incubation, reaction 3 hours at room temperature

IC50 [nM] | SMILES
1300 | Cc1c(-c2nc3c(c(N4CCOCC4)n2)CS(=O)(=O)C3)cc(NC(=O)c2cccc(C(F)(F)F)c2)c[n+]1[O-] [Example 887, 2-methyl-3-(4-morpholino-6,6-dioxido-5,7-dihydrothieno[3,4-d]pyrimidin-2-yl)-5-(3-(trifluoromethyl)benzamido)pyridine 1-oxide]
0.73 | Cc1ccc(NC(=O)c2ccnc(C(F)(F)F)c2)cc1-c1cc(OCCO)nc(N2CCOCC2)c1 [Example 1156, N-(3-(2-(2-hydroxyethoxy)-6-morpholinopyridin-4-yl)-4-methylphenyl)-2-(trifluoromethyl)isonicotinamide]
2.86 | Cc1ncc(NC(=O)c2cccc(C(F)F)c2)cc1-c1cc(NCCO)nc(N2CCOCC2)c1 [Example 1038, 3-(difluoromethyl)-N-(2′-((2-hydroxyethyl)amino)-2-methyl-6′-morpholino-[3,4′-bipyridin]-5-yl)benzamide]
4.45 | Cc1ncc(NC(=O)c2ccnc(C3CC3)c2)cc1-c1cc(N2CCOCC2)nc(N2CC(C)(O)C2)c1 [Example 1102, 2-cyclopropyl-N-(2′-(3-hydroxy-3-methylazetidin-1-yl)-2-methyl-6′-morpholino-[3,4′-bipyridin]-5-yl)isonicotinamide]
1.29 | CCOc1cc(-c2cc(NC(=O)c3ccnc(C(F)(F)F)c3)ccc2C)cc(N2CCOCC2)n1 [Example 1133, N-(3-(2-ethoxy-6-morpholinopyridin-4-yl)-4-methylphenyl)-2-(trifluoromethyl)isonicotinamide]
2.31 | Cc1ccc(NC(=O)c2cnnc(C3CC3)c2)cc1-c1cc(N2CCOCC2)nc(N2CC(C)(O)C2)c1 [Example 1076, 6-cyclopropyl-N-(3-(2-(3-hydroxy-3-methylazetidin-1-yl)-6-morpholinopyridin-4-yl)-4-methylphenyl)pyridazine-4-carboxamide]
8.19 | Cc1ncc(NC(=O)c2cnnc(C(F)(F)F)c2)cc1-c1cc(NCCO)nc(N2CCOCC2)c1 [Example 1051, N-(2′-((2-hydroxyethyl)amino)-2-methyl-6′-morpholino-[3,4′-bipyridin]-5-yl)-6-(trifluoromethyl)pyridazine-4-carboxamide]
2 | Cc1ccc(NC(=O)c2cccc(S(C)(=O)=O)c2)cc1-c1cc(N2CCOCC2)nc(N2CC(O)C2)c1 [Example 1096, N-(3-(2-(3-hydroxyazetidin-1-yl)-6-morpholinopyridin-4-yl)-4-methylphenyl)-3-(methylsulfonyl)benzamide]
3.14 | CCn1cc(C(=O)Nc2ccc(C)c(-c3cc(N4CCOCC4)nc(N4CCOCC4)c3)c2)cc(C(F)(F)F)c1=O [Example 1114, N-(3-(2,6-dimorpholinopyridin-4-yl)-4-methylphenyl)-1-ethyl-6-oxo-5-(trifluoromethyl)-1,6-dihydropyridine-3-carboxamide]
7.6 | Cc1ccc(NC(=O)c2ccnc(C(C)(C)C#N)c2)cc1-c1nc2c(c(N3CCOCC3)n1)CNC2 [Example 866, 2-(2-cyanopropan-2-yl)-N-(4-methyl-3-(4-morpholino-6,7-dihydro-5H-pyrrolo[3,4-d]pyrimidin-2-yl)phenyl)isonicotinamide]
51.1 | Cc1ncc(NC(=O)c2ccnc(S(C)(=O)=O)c2)cc1-c1cc(N2CCOCC2)nc(N2CC(O)C2)c1 [Example 1090, N-(2′-(3-hydroxyazetidin-1-yl)-2-methyl-6′-morpholino-[3,4′-bipyridin]-5-yl)-2-(methylsulfonyl)isonicotinamide]

Same assay, conditions: read-out: b-Raf IC-50; Table 2; AlphaScreen, 3 hours reaction

IC50 [nM] | SMILES
100 | CCOc1ncc(-c2cc(NC(=O)c3cnnc(C(C)(C)C#N)c3)cnc2C)cc1N1CCOC[C@H]1C [Example 303, (R)-6-(2-cyanopropan-2-yl)-N-(6′-ethoxy-2-methyl-5′-(3-methylmorpholino)-[3,3′-bipyridin]-5-yl)pyridazine-4-carboxamide]
0.3 | Cc1ccc(NC(=O)c2cccc(C(F)(F)F)c2)cc1-c1cc(N2CCOCC2)ncn1 [Example 1, N-(4-methyl-3-(6-morpholinopyrimidin-4-yl)phenyl)-3-(trifluoromethyl)benzamide]
3.1 | Cc1ncc(NC(=O)c2ccnc(C(C)C)c2)cc1-c1cnc(C#N)c(N2CCOCC2)c1 [Example 251, N-(6′-cyano-2-methyl-5′-morpholino-[3,3′-bipyridin]-5-yl)-2-isopropylisonicotinamide]
0.6 | Cc1ccc(NC(=O)c2cnnc(C3(C#N)CC3)c2)cc1-c1cnc(OC2CCOCC2)c(N2CCOCC2)c1 [Example 302, 6-(1-cyanocyclopropyl)-N-(4-methyl-3-(5-morpholino-6-((tetrahydro-2H-pyran-4-yl)oxy)pyridin-3-yl)phenyl)pyridazine-4-carboxamide]
1 | CC(C)c1cc(C(=O)Nc2ccc(Cl)c(-c3cc(N4CCOCC4)c(=O)n(C)c3)c2)ccn1 [Example 421, N-(4-chloro-3-(1-methyl-5-morpholino-6-oxo-1,6-dihydropyridin-3-yl)phenyl)-2-isopropylisonicotinamide]
0.9 | Cc1ccc(C(=O)Nc2cccc(C(F)(F)F)c2)cc1-c1cc(N2CCOCC2)ccn1 [Example 64, 4-methyl-3-(4-morpholinopyridin-2-yl)-N-(3-(trifluoromethyl)phenyl)benzamide]
3.1 | CCOc1ncc(-c2cc(NC(=O)c3cnnc(C(F)(F)F)c3)cnc2C)cc1N1CCOCC1 [Example 259, N-(6′-ethoxy-2-methyl-5′-morpholino-[3,3′-bipyridin]-5-yl)-6-(trifluoromethyl)pyridazine-4-carboxamide]
1.6 | Cc1ncc(NC(=O)c2ccnc(C(C)(C)F)c2)cc1-c1cnc(N(C)C)c(N2CCOCC2)c1 [Example 268, N-(6′-(dimethylamino)-2-methyl-5-morpholino-[3,3′-bipyridin]-5-yl)-2-(2-fluoropropan-2-yl)isonicotinamide]
2.2 | Cc1ccc(NC(=O)c2cccc(C(F)F)c2)cc1-c1cc(N2CCOCC2)c(=O)n(C)n1 [Example 190, 3-(difluoromethyl)-N-(4-methyl-3-(1-methyl-5-morpholino-6-oxo-1,6-dihydropyridazin-3-yl)phenyl)benzamide]
33.7 | Cc1ccc(C(=O)Nc2ccccc2)cc1-c1cc(N2CCOCC2)c(=O)n(C)c1 [Example 429, 4-methyl-3-(1-methyl-5-morpholino-6-oxo-1,6-dihydropyridin-3-yl)-N-phenylbenzamide]
7.6 | CCOc1ncc(-c2cc(NC(=O)c3cccc(-c4nnco4)c3)cnc2C)cc1N1CCOCC1 [Example 244, N-(6′-ethoxy-2-methyl-5′-morpholino-[3,3′-bipyridin]-5-yl)-3-(1,3,4-oxadiazol-2-yl)benzamide]

SMILES | IC50 [nM]
CCOc1ncc(-c2cc(NC(=O)c3cccc(C(F)(F)F)c3)ccc2C)cc1N1CCOCC1 [Example 235] | 1
